Measured values: publication PMC12340070, “A novel modulator of IL-6R prevents inflammation-induced preterm birth and improves newborn outcome” (EMBO Molecular Medicine, 2025)
Values joined by “and” are separate entries in the source; they are usually repeats but may differ in a detail not shown here. Equal entries are not always repeated.

Test system: LPS-induced preterm birth in CD-1 mice
Assay: STAT3 inhibitor efficacy in LPS-induced PTB: gestational length and prematurity rate
Format: in vivo, mouse
Conditions: for prevention of LPS-induced PTB: 5 mg/kg/day s.c., twice a day, GD16; for % PTB: group value; for GD (gestation day): individual dams, one per line
Experimental: Timed pregnant CD-1 mice at days 16 and 17 of gestation were anesthetized with isoflurane and given intraperitoneal (i.p.) injections of LPS (4 μg in 100 μL saline on GD16 and 6 μg in 100 μL saline on GD17, total 10 μg) or vehicle (100 μL). Doses of LPS were selected based on previous reports (Chang et al, [2011]; Elovitz and Mrinalini, [2004]; Fidel et al, [1994]; Sadowsky et al, [2006]; Salminen et al, [2008]; Urakubo et al, [2001]), preliminary dose–response experiments, and knowing that a systemic maternal infection is associated with the onset of labor (Romero et al, [2001]). A total of 100 μL of HSJ633 or HSJ639 (2 mg/kg/day), an anti-IL-6R antibody (800 μg/kg/day) or vehicle was injected subcutaneously (s.c.) 30 min before injections of LPS (to allow distribution of drugs to target tissues) and repeated twice daily until GD18.5.
Thirty minutes before administering LPS, on GD16, NSC74859 (5 mg/kg/day solubilized in 20% DMSO + water, injected twice a day s.c.) or rmgp130/Fc Chimera (10 μg i.p. on GD16 and 10 μg s.c. on GD16.5) were injected into distinct dams. The same LPS-induction PTB model as described above was used for these experiments (4 μg on GD16 + 6 μg on GD17, i.p.). Delivery was assessed until term (GD18.5–19.5).

Cc1ccc(S(=O)(=O)OCC(=O)Nc2ccc(C(=O)O)c(O)c2)cc1 [NSC74859]
prevention of LPS-induced PTB: successfully inhibited preterm birth
prevention of LPS-induced PTB (listed as NCS74859): effective in preventing LPS-induced PTB
% PTB (experiment of April 2022, less than 18 days = PTB): 25.00%
GD (gestation day) (experiment of April 2022, 18.5 days and more = term): 18 and 18.5 and 19
% PTB (experiment of May 2022): 20.00%
GD (gestation day) (experiment of May 2022): 19.5 and 18.5 and 17.5
% PTB (third, undated experiment): 42.86%
GD (gestation day) (third, undated experiment): 17 and 17.5 and 19 and 19.5
